Data from patent US20210300940A1 (Merck Patent GmbH, priority 2018, published 2021).

What was measured:
TLR7 = target: T1, TLR7 (Homo sapiens, UniProt Q9NYK1); assay: HEK/293 TLR7 Cell Assay; type: cell-based; settings: TLR7/NFKb HEK cells, R848 agonist 10 uM final concentration, Steady-Glo readout; read-out: TLR7 potency
T1 construct: expressed in transfected cells; host or cells: HEK/293 cells carrying TLR7 and an NF-kB luciferase reporter
T1 sequence (Q9NYK1 27-1049): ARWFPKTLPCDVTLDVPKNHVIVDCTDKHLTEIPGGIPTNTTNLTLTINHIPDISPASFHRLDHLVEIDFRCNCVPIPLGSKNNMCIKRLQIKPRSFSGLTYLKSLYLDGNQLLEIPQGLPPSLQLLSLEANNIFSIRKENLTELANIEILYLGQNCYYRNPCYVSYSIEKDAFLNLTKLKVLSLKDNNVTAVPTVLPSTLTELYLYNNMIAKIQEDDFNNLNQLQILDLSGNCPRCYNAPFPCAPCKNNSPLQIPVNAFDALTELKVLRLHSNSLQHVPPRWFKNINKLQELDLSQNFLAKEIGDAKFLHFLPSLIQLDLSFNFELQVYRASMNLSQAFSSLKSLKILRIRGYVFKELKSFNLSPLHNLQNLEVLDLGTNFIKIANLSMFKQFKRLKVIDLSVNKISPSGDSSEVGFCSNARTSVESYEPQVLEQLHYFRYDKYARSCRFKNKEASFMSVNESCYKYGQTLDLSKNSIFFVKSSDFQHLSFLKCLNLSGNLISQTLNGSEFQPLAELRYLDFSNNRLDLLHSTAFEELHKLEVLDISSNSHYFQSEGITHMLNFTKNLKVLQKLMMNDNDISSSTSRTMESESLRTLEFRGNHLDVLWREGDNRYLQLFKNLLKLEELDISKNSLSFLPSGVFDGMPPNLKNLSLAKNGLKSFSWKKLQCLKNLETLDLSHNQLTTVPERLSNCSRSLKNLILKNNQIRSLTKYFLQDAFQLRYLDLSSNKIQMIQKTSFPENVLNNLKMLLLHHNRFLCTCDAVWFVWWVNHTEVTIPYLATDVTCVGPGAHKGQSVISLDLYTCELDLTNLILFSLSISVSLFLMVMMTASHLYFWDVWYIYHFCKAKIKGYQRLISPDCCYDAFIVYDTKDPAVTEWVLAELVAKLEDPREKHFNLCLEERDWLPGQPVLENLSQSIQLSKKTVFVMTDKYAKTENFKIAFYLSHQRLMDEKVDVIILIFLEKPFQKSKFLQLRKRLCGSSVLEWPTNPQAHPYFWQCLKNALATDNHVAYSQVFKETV
Method in brief: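 Compounds added to HEK cells expressing TLR7 with an NFκB reporter 30 min ahead of 10 uM R848 challenge; luciferase signal (Steady-Glo) measured after 5 h, cells having been seeded 24 h earlier at 5000 per well.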

TLR8 = target: T2, TLR8 (Homo sapiens, UniProt Q9NR97); assay: HEK/293 TLR8 Cell Assay; type: cell-based; settings: HEK cells, R848 agonist 30 uM final concentration, Steady-Glo readout; read-out: TLR8 potency
T2 construct: expressed in transfected cells; host or cells: HEK/293 reporter cells (NF-kB luciferase)
T2 sequence (Q9NR97 27-1041): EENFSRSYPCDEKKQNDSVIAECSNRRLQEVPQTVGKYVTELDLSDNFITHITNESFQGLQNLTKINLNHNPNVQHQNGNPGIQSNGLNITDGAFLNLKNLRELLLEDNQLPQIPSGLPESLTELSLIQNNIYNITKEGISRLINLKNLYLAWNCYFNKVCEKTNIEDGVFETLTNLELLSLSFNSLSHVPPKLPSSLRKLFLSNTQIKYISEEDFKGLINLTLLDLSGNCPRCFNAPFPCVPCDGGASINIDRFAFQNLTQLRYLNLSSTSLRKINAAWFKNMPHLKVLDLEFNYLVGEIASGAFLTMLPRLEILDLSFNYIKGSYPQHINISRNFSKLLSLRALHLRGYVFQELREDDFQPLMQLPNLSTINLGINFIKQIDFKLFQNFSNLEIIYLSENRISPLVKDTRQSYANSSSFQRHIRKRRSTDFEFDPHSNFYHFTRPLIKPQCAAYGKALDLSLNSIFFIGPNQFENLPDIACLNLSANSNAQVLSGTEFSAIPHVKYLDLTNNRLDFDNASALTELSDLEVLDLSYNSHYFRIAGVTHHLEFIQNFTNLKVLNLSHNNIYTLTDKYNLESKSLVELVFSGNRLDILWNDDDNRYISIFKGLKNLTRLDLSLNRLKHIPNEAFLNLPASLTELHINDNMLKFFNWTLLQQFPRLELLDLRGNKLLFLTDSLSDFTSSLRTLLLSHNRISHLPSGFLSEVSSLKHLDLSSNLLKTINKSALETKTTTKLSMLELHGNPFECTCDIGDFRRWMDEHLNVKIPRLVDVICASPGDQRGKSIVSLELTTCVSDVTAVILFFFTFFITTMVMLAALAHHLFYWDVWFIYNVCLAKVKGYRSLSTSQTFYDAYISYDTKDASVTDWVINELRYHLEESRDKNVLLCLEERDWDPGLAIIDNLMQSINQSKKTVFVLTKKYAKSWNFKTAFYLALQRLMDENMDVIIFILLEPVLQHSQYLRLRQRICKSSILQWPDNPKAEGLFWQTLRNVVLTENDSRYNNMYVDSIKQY

| Molecule | IC50 (TLR7) [µM] | IC50 (TLR8) [µM] |
| --- | --- | --- |
| C[C@@H]1CN(c2cnc(C#N)c3ncccc23)C[C@H](CNC(=O)[C@@]2(F)CCN(C)C2)O1 (single isomer, unassigned) [Example 334] | > 0.15 | < 0.075 |
| CC(C)(O)CNC(=O)[C@@H]1CN(c2ccc(C#N)c3nccnc23)C[C@H](C(F)(F)F)O1 (single isomer, unassigned) [Example 285] | > 0.15 | > 0.15 |
| C[C@H]1C[C@@H](NCCNC(N)=O)CN(c2ccc(C(F)(F)F)c3ncccc23)C1 [Example 45, {2-[(3R,5S)-5-Methyl-1-(8-trifluoromethyl-quinolin-5-yl)-piperidin-3-ylamino]-ethyl}-urea] | < 0.075 | < 0.075 |
| C[C@@H]1CN(c2ccc(C#N)c3nccnc23)C[C@H](C(=O)NC2CCNC3(CCC3)C2)O1 (stereo partly drawn) [Example 291, (2R,6R)-4-(8-Cyano-quinoxalin-5-yl)-6-methyl-morpholine-2-carboxylic acid (5-aza-spiro[3.5]non-8-yl)-amide] | < 0.075 | < 0.075 |
| C[C@@H]1CN(c2ccc(C#N)c3ncncc23)C[C@H](C(=O)NCC2(F)CCN(C)CC2)O1 [Example 346, (2R,6R)-4-(8-Cyano-quinazolin-5-yl)-6-methyl-morpholine-2-carboxylic acid (4-fluoro-1-methyl-piperidin-4-ylmethyl)-amide] | < 0.075 | < 0.075 |
| C[C@H]1C[C@@H](NC(=O)C[C@@H]2CCNC[C@@H]2F)CN(c2ccc(C#N)c3ncncc23)C1 [Example 131, N-[(3R,5S)-1-(8-cyanoquinazolin-5-yl)-5-methylpiperidin-3-yl]-2-[(3R,4S)-3-fluoropiperidin-4-yl]acetamide] | < 0.075 | > 0.15 |
| N#Cc1ccc(N2C[C@H](NC(=O)C3CCCNC3)C[C@H](C(F)(F)F)C2)c2cccnc12 (stereo partly drawn) [Example 185, Piperidine-3-carboxylic acid [(3R,5S)-1-(8-cyano-quinolin-5-yl)-5-trifluoromethyl-piperidin-3-yl]-amide] | > 0.15 | 0.075 to 0.15 |
| C[C@H]1C[C@@H](NC(=O)CCC2CCN(C)CC2)CN(c2ccc(C#N)c3ncncc23)C1 [Example 191, N-[(3R,5S)-1-(8-Cyano-quinazolin-5-yl)-5-methyl-piperidin-3-yl]-3-(1-methyl-piperidin-4-yl)-propionamide] | 0.075 to 0.15 | 0.075 to 0.15 |
| C[C@@H]1CN(c2ccc(C#N)c3nccnc23)C[C@H](CN2CC(O)C2)O1 [Example 216, 8-[(2S,6R)-2-(3-Hydroxy-azetidin-1-ylmethyl)-6-methyl-morpholin-4-yl]-quinoxaline-5-carbonitrile] | < 0.075 | > 0.15 |
| C[C@@H]1CN(c2cnc(C#N)c3ncccc23)C[C@H](CNC(=O)[C@]2(F)CCCNC2)O1 (single isomer, unassigned) [Example 339] | > 0.15 | < 0.075 |
| C[C@H]1C[C@@H](NC(=O)CCS(=O)(=O)N(C)C)CN(c2ccc(C#N)c3nccnc23)C1 [Example 195, N-[(3R,5S)-1-(8-Cyano-quinoxalin-5-yl)-5-methyl-piperidin-3-yl]-3-dimethylsulfamoyl-propionamide] | 0.075 to 0.15 | 0.075 to 0.15 |

Next, values leading:

| IC50 (TLR7) [µM] | IC50 (TLR8) [µM] | Molecule |
| --- | --- | --- |
| < 0.075 | < 0.075 | C[C@H]1C[C@@H](OCCN2CCN(C)CC2)CN(c2ccc(C#N)c3nccnc23)C1 (racemic) [Example 1, 8-[(3S,5R)-3-methyl-5-[2-(4-methylpiperazin-1-yl)ethoxy]piperidin-1-yl]quinoxaline-5-carbonitrile] |
| 0.075 to 0.15 | < 0.075 | Cc1ccc(N2C[C@@H](C)C[C@@H](NC(=O)CN3CCN(C)CC3)C2)c2cccnc12 [Example 86, N-[(3R,5S)-5-methyl-1-(8-methylquinolin-5-yl)piperidin-3-yl]-2-(4-methylpiperazin-1-yl)acetamide] |
| < 0.075 | < 0.075 | N#Cc1ccc(N2C[C@@H](C(=O)NCC3(F)CCNCC3)O[C@@H](C(F)(F)F)C2)c2nccnc12 (single isomer, unassigned) [Example 306] |
| < 0.075 | < 0.075 | C[C@H]1C[C@@H](NCCC(N)=O)CN(c2ccc(C(F)(F)F)c3nccnc23)C1 [Example 22, 3-[(3R,5S)-5-Methyl-1-(8-trifluoromethyl-quinoxalin-5-yl)-piperidin-3-ylamino]-propionamide] |
| < 0.075 | < 0.075 | C[C@H]1C[C@@H](NCC2CCC(=O)N2)CN(c2ccc(C(F)(F)F)c3nccnc23)C1 (stereo partly drawn) [Example 28, 5-{[(3R,5S)-5-Methyl-1-(8-trifluoromethyl-quinoxalin-5-yl)-piperidin-3-ylamino]-methyl}-pyrrolidin-2-one] |
| < 0.075 | < 0.075 | C[C@@H]1C[C@H](NC(=O)C[C@@H]2[C@@H]3C[C@H]2CN(C)C3)CN(c2ccc(C(F)(F)F)c3ncccc23)C1 [Example 107, N-((3S,5R)-5-methyl-1-(8-(trifluoromethyl)quinolin-5-yl)piperidin-3-yl)-2-((1R,5S,6r)-3-methyl-3-azabicyclo[3.1.1]heptan-6-yl)acetamide] |
| 0.075 to 0.15 | < 0.075 | Cc1ccc(N2C[C@@H](C)C[C@@H](NC(=O)[C@@H](N)CC(N)=O)C2)c2cccnc12 [Example 130, (2S)-2-amino-N-[(3R,5S)-5-methyl-1-(8-methylquinolin-5-yl)piperidin-3-yl]butanediamide] |
| < 0.075 | < 0.075 | N#Cc1ccc(N2C[C@H](N)CC(F)(F)C2)c2cccnc12 (single isomer, unassigned) [Example 197] |
| 0.075 to 0.15 | > 0.15 | (2S,6S)-4-(8-cyanoquinolin-5-yl)-N-[(4-fluoro-1-methylpiperidin-4-yl)methyl]-6-(trifluoromethyl)morpholine-2-carboxamide [Example 316] |
| < 0.075 | < 0.075 | C[C@@H]1CN(c2cnc(C#N)c3ncccc23)C[C@H](CNC(=O)[C@]2(F)CCNC2)O1 (single isomer, unassigned) [Example 337] |
| < 0.075 | < 0.075 | CN1CC[C@](F)(CNC(=O)[C@@H]2CN(c3ccc(C#N)c4nccnc34)C[C@H](C(F)(F)F)O2)C1 (single isomer, unassigned) [Example 358] |
| > 0.15 | < 0.075 | C[C@H]1C[C@@H](n2ccnc2)CN(c2ccc(C(F)(F)F)c3nccnc23)C1 [Example 157, 5-[(3R,5S)-3-(1H-imidazol-1-yl)-5-methylpiperidin-1-yl]-8-(trifluoromethyl)quinoxaline] |
